Laboratory results: PMC10686834, “Targeting myeloid chemotaxis to reverse prostate cancer therapy resistance” (Nature, 2023)

Tested on: patients with ARSI-resistant mCRPC
Assay: Phase 1 trial of AZD5069 plus enzalutamide: safety and tolerability (DLTs, treatment-emergent adverse events, NCI-CTCAE v.4.0)
Type: in vivo
Text: The primary trial objective was to evaluate the safety and tolerability of the combination. Key secondary objectives were to evaluate pharmacokinetic–pharmacodynamic parameters and antitumour activity.
Eligible patients were consenting patients aged ≥18 years, who had mCRPC with histologically confirmed prostate adenocarcinoma histology, documented cancer progression at the time of trial entry by Response Evaluation Criteria in Solid Tumors (v.1.1) and/or Prostate Cancer Working Group 2 criteria, and PSA of ≥10 ng ml^−1 at screening.
The dose-escalation phase used a rule-based 3 + 3 design, with an initial three patients enrolled per dose level. If none of the first three patients experienced a DLT, dose escalation proceeded to the next dose level. […] If fewer than two of six patients at any dose level experienced a DLT, dose escalation continued to the next level. If at least two out of up to six patients experienced a DLT, dose escalation stopped and this dose level was defined as the maximum administered dose. Once this maximum administered dose was defined, the maximum tolerated dose (MTD) was confirmed at the dose level below the maximum administered dose. At least six evaluable patients were required to establish the MTD at a specific dose level. […] Intra-patient dose escalation was not permitted. Start of dosing between the first and second patient enrolled to each dose level was staggered by 1 week. Once the MTD was determined in the phase 1 study, the recommended phase 2 dose was determined on the basis of available data, including but not limited to safety and response.
DLTs were defined as described in the study protocol. […] Prophylaxis with growth factor support or antipyretics were not permitted. Investigators determined whether an adverse event was related to the study drugs. If a patient experienced clinically significant and/or unacceptable toxicity, including a DLT, not attributable to the disease or disease-related processes, dosing was interrupted or the dose was reduced and supportive therapy was administered as required.

## C[C@@H](Oc1cc(NS(=O)(=O)N2CCC2)nc(SCc2cccc(F)c2F)n1)[C@@H](O)CO [AZD5069]
AZD5069 160 mg BD (n=6)
  TEAE Arthralgia, G≥3: 0 (0) n (%)
  TEAE Aspartate aminotransferase increased, All G: 0 (0) n (%)
  TEAE Aspartate aminotransferase increased, G≥3: 0 (0) n (%)
  TEAE Constipation, All G: 0 (0) n (%)
  TEAE Constipation, G≥3: 0 (0) n (%)
  TEAE Death, All G: 0 (0) n (%)
  TEAE Death, G≥3: 0 (0) n (%)
  TEAE Decreased appetite, All G: 0 (0) n (%)
  TEAE Decreased appetite, G≥3: 0 (0) n (%)
  TEAE Diarrhoea, All G: 0 (0) n (%)
  TEAE Diarrhoea, G≥3: 0 (0) n (%)
  TEAE Dry skin, All G: 0 (0) n (%)
  TEAE Dry skin, G≥3: 0 (0) n (%)
  TEAE Fatigue, All G: 2 (33) n (%)
  TEAE Fatigue, G≥3: 0 (0) n (%)
  TEAE Headache, All G: 0 (0) n (%)
  TEAE Headache, G≥3: 0 (0) n (%)
  TEAE Hypophosphataemia, All G: 0 (0) n (%)
  TEAE Hypophosphataemia, G≥3: 0 (0) n (%)
  TEAE Nausea, All G: 2 (33) n (%)
  TEAE Nausea, G≥3: 0 (0) n (%)
  TEAE Neutrophil decreased, All G: 5 (83) n (%)
  TEAE Neutrophil decreased, G≥3: 4 (67) n (%)
  TEAE Oedema genital, All G: 1 (17) n (%)
  TEAE Oedema genital, G≥3: 0 (0) n (%)
  TEAE Platelet decreased, All G: 1 (17) n (%)
  TEAE Platelet decreased, G≥3: 0 (0) n (%)
  TEAE Pruritus, All G: 0 (0) n (%)
  TEAE Pruritus, G≥3: 0 (0) n (%)
  TEAE Skin infection, All G: 0 (0) n (%)
  TEAE Skin infection, G≥3: 0 (0) n (%)
  TEAE Vomiting, All G: 0 (0) n (%)
  TEAE Vomiting, G≥3: 0 (0) n (%)
  TEAE White blood cell decreased, All G: 2 (33) n (%)
  TEAE White blood cell decreased, G≥3: 0 (0) n (%)
AZD5069 320 mg BD (n=7)
  TEAE Anemia, All G: 0 (0) n (%)
  TEAE Anemia, G≥3: 0 (0) n (%)
  TEAE Aphasia, All G: 1 (14) n (%)
  TEAE Aphasia, G≥3: 0 (0) n (%)
  TEAE Arthralgia, All G: 1 (14) n (%)
  TEAE Arthralgia, G≥3: 0 (0) n (%)
  TEAE Aspartate aminotransferase increased, All G: 1 (14) n (%)
  TEAE Aspartate aminotransferase increased, G≥3: 0 (0) n (%)
  TEAE Constipation, All G: 1 (14) n (%)
  TEAE Constipation, G≥3: 0 (0) n (%)
  TEAE Death, All G: 1 (14) n (%)
  TEAE Death, G≥3: 1 (14) n (%)
  TEAE Decreased appetite, All G: 1 (14) n (%)
  TEAE Decreased appetite, G≥3: 0 (0) n (%)
  TEAE Diarrhoea, All G: 1 (14) n (%)
  TEAE Diarrhoea, G≥3: 1 (14) n (%)
  TEAE Dry skin, All G: 1 (14) n (%)
  TEAE Dry skin, G≥3: 0 (0) n (%)
  TEAE Fatigue, All G: 3 (43) n (%)
  TEAE Fatigue, G≥3: 0 (0) n (%)
  TEAE Headache, All G: 3 (43) n (%)
  TEAE Headache, G≥3: 0 (0) n (%)
  TEAE Hypophosphataemia, All G: 0 (0) n (%)
  TEAE Hypophosphataemia, G≥3: 0 (0) n (%)
  TEAE Nausea, All G: 1 (14) n (%)
  TEAE Nausea, G≥3: 0 (0) n (%)
  TEAE Neutrophil decreased, All G: 6 (86) n (%)
  TEAE Neutrophil decreased, G≥3: 4 (57) n (%)
